The record followed here is patent publication US20140349962A1, “RAPID TWO-STEP SYNTHESIS OF ANTI-COAGULANTS” (Massachusetts Institute of Technology, priority 2013, published 2014).

For one assay, the system named is Human factor Xa. The following applies: approximately; heparin-dependent factor Xa inhibition, commercial heparin as standard.
Assay [1] addresses anti-thrombin III (ATIII) (Homo sapiens, UniProt P01008). The following applies: compared to in vitro modified commercial heparin. The protocol: PAP^35S-radiolabeled N-deacetylate N-sulfate derivatives of non-sulfated N-acetyl heparosan (HS) polysaccharides (10, 000 counts) was reacted with […] ATIII. Complex formation was analyzed by non-denaturing gel electrophoresis (4% polyacrylamide). The mobility of radiolabeled N-deacetylate N-sulfate derivatives of non-sulfated N-acetyl heparosan (HS) polysaccharides was compared with and without ATIII.
Heparin-ATIII binding buffer contained 12% glycerol, 20 mM Tris-HCl (pH 7.9), 100 mM KCl, 1 mM EDTA, and 1 mM DTT. For a typical 20 μl binding reaction, radiolabeled polysaccharide (10,000 cpm) was mixed with AT-III (1 μg) in the binding buffer. The reaction mixture was incubated at room temperature (23° C.) for 20 min and was then applied to a 4.5% native polyacrylamide gel (with 0.1% of bis-acrylamide). The gel buffer was 10 mM Tris (pH 7.4) and 1 mM EDTA, and the electrophoresis buffer was 40 mM Tris (pH 8.0), 40 mM acetic acid, 1 mM EDTA. The gel was run at 6 volts/cm for 1-2 hours with an SE 250 Mighty Small II gel apparatus (Hoefer Scientific Instruments, San Francisco). After electrophoresis, the gel was transferred to 3 MM paper and dried under vacuum. The dried gel was autoradiographed by a PhosphorImager 445S1 (Molecular Dynamics, Sunnyvale, Calif.). The image was analyzed with NIH Image 1.60 and band intensities were evaluated.

A further assay concerns the target PF4 (Homo sapiens, UniProt P02776). The following applies: expected because compound is free of 2-O sulfated iduronic acid residues.

Sequence of PF4 (P02776 32-101): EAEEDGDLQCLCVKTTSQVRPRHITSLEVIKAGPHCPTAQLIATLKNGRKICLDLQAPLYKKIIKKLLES
Sequence of anti-thrombin III (ATIII) (P01008 33-464, species assumed): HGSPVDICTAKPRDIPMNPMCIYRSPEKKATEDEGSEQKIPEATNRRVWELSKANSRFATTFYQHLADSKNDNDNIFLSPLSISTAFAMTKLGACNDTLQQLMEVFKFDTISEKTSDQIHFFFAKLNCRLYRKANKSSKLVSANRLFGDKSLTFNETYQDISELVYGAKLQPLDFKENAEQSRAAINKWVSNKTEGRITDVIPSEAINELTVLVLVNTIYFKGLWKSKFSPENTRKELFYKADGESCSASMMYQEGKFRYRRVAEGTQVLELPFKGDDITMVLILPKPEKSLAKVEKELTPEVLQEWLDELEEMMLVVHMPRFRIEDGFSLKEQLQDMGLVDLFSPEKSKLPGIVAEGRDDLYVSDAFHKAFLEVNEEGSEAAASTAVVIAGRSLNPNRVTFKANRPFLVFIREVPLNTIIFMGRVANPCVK
Description for Human factor Xa: Human factor Xa (10.4 mg/ml 50% glycerol, 820 units/mg) (Hematologic Technologies, Essex Junction, Vt.) was used for assay. Factor Xa was diluted 1:200 with PBS containing 1 mg of bovine serum albumin (4 units/ml and 15 units/ml, respectively). ATIII (2.5 mg/ml) (GlycoMed, CA) was diluted 1:200 to give a 2×10^7 M stock solution. The chromogenic substrate S-2765 was from Chromogenix (West Chester, Ohio) and the stock solution of 1 mM with 1 mg/ml Polybrene in water was prepared. Heparin (174 international units/mg, Sigma) was used as a standard. The N-deacetylated N-sulfated polysaccharide product was used for factor Xa studies (10 ng). The protocol involved adding 25 μl of ATIII (2×10 7 M) to 25 μl of a serial dilution of heparin standards or N-deacetylated N-sulfated polysaccharide in Tris-EDTA (50 mM Tris, 7.5 mM EDTA, and 175 mM NaCl (pH 8.4)) buffer. The reaction was incubated at 37° C. for 75 seconds. Factor Xa (25 μl, 4 units/ml) was added. After incubating at 37° C. for 195 seconds, 25 μl of S-2765 was added. The absorbance at 405 nm was read every minute for 10 minutes using a Beckman UV spectrometer.

As to “N-deacetylate N-sulfate derivatives of non-sulfated N-acetyl heparosan (HS) polysaccharide [Formula I]”, the “specific activity relative to commercial heparin” value in the assay on Human factor Xa was 4-5 times. Besides, the “percentage of compound bound to ATIII compared to commercial heparin” value in assay [1] is on record as “greater percentage”. In addition, on PF4, the “ability to bind to PF4” value is “reduced ability to bind to PF4”.
